Assays:
[1] = ABTS radical cation scavenging assay
Method: ABTS (2,2′-azinobis-3-ethylbenzothiazoline-6-sulfonate) assay
The radical scavenging capacity of antioxidants for the ABTS radical cation was evaluated following this method: ABTS was prepared by adding 7 mM solution of ABTS at pH 7.4 (5 mM NaH2PO4, 5 mM Na2HPO4, and 154 mM NaCl) with 2.5 mM potassium persulfate. The mixture was stored at room temperature for 16 h in the dark before use and prepared […]. Once diluted with persulfate buffer, the absorbance of the mixture yielded an absorbance value of 0.70 ± 0.05 units at 734 nm. Then, 20 µL of each tested sample was mixed with fresh ABTS solution (180 µL), then the absorbance was measured 6 min after the initial mixing. Ascorbic acid was used as a standard. The capacity of free radical scavenging was expressed as a percentage of the inhibition values. The percentage of inhibition is calculated using the same expression employed in the DPPH assay.

[2] = DPPH radical scavenging assay
Method: DPPH• (1-1-diphenyl 2-picryl hydrazyl) assay
This method is based on the spectrophotometric assay using the stable radical, DPPH•, as a reagent. First, 20 µL of each sample (4 mg/mL) was mixed with 180 µL of 0.1 mM DPPH• in methanol, in plates, after an incubation of 25 min in the dark. Absorbance was measured at 517 nm. Ascorbic acid was used as the reference compound. The radical-scavenging activities of molecules, expressed as a percentage inhibition of DPPH•, were calculated according to the following formula: Inhibition (%) = [(A control − A sample)/A control] × 100 where A is the absorbance determined at 517 nm. The absorbance of the solvent and DPPH• radical without the molecule was measured as the control.

Q: What does the source list for O=C1O[C@H]([C@@H](O)CO)C(O)=C1O [Vitamin C, Ascorbic acid, reference compound]?
A: IC50 [1]: 2200 ± 200 nM; IC50 [2]: 2300 ± 200 nM

— publication PMC10052652 (Molecules, 2023)
